# Assay results reported in patent US20250319067A1, “Improved Pharmacokinetics of Tryptamine Prodrugs” (Reunion Neuroscience, Inc., priority 2023, published 2025).
# Tests used:
# [1] = Non-GLP single dose, dose range study in rats (MTD); conditions: rat, in vivo, sc
# Description: Non-GLP single dose, dose range studies with RE104 HCl were performed in rats and dogs to explore toxicity and establish a maximum tolerated dose (MTD) by SC injection. The rat study explored dosing with two formulations, water for injection (WFI) at pH 3-4 and phosphate buffered saline (PBS) with a final formulation pH of 4.5-5. Single doses of 20 to 300 mg/kg formulated in WFI produced dose-dependent pharmacologically related systemic serotonergic clinical signs. Similarly, SC administration with doses of 25 to 225 mg/kg RE104 formulated in PBS caused clinical signs of SS around 1 hour with recovery by 24 hours.
# Clinical signs were reversible by Recovery Day 13 (Study Day 14). Microscopic injection site pathology was seen following a single dose of 225 mg/kg. The MTD in the rat for RE104 in WFI was 150 mg/kg and in PBS was 75 mg/kg.
# [2] = tested on: rat hepatocytes; test: Hepatocyte intrinsic clearance, rat; assay type: in vitro ADME
# Text: (§1) In human, rat, rabbit, dog and monkey hepatocytes, the metabolite profile of RE104 was qualitatively similar across these species with only minor differences.
# [3] = tested on: human hepatocytes; test: Hepatocyte intrinsic clearance, human; assay type: in vitro ADME
# Text: as §1
# [4] = tested on: monkey hepatocytes; test: Hepatocyte intrinsic clearance, monkey; assay type: in vitro ADME
# Text: as §1
# [5] = tested on: cytochrome P450 (CYP) enzymes, FMO and MAO enzymes; test: Recombinant human enzymes (Supersomes) substrate assay; assay type: in vitro ADME
# [6] = Prodrug cleavage in rat plasma; assay type: in vitro ADME; conditions: 37° C.
# Description: Mean values from 3 replicate assays are reported. See the Supplemental Methods for additional details.
# Triplicate aliquots (50 μL) of each spiked plasma solution were immediately added to 200 μL of ice-cold methanol/acetonitrile solution (50:50 v/v) containing the internal standards to generate time zero samples. Spiked plasma solutions were incubated at 37° C. in an orbital shaker set to 75 rpm, and 50-μL samples were taken in triplicate after 30 minutes and 1, 2, and 4 hours of incubation. Each sample was immediately added to 200 μL ofice-cold methanol/acetonitrile solution containing the internal standard(s) to terminate the reaction. Samples were mixed by vortex and then stored at −80° C. until analysis.
# Calibration standards were prepared in plasma for each species and analyzed in batches by LC-MS/MS. Sample batches consisted of 3 replicates of a system suitability standard (containing the analyte and internal standard), the appropriate calibration standards in ascending order including a blank sample without internal standard, a zero sample (with internal standard), and at least 6 nonzero standards and the assay samples, followed by the 3 replicates of the system suitability sample.
# [7] = Conversion in aqueous solution; assay type: physicochemical; conditions: as a function of pH
# [8] = tested on: male Wistar rats; test: Forced swim test (FST) in rats; assay type: in vivo, rat
# [9] = Phase 1 FIH study: plasma pharmacokinetics (LC-MS/MS); assay type: in vivo; conditions: human; for Cmax / Tmax / half-life: female, plasma; for half-life: read-out: t1/2, mean (converted)
# Description: The study was a double-blind, randomized, placebo-controlled Phase 1 single ascending dose study in up to 6 cohorts in healthy females. Eligibility was assessed during a screening period of up to 28 days prior to enrollment. For the treatment period, subjects were admitted to the clinical research unit (CRU) one day prior to the dosing (Day −1). On Day 1, all subjects will received the assigned SC dose of RE104 HCl or placebo in a fed state (after domiciling overnight and consuming a planned evening meal on Day −1 and morning meal on Day 1 while at the CRU). Subjects were allowed to select snacks from a planned menu from 4 hours following dosing. Subjects were discharged from the clinic on Day 2 (−24 hours post-dose) after all required study procedures were completed and if deemed medically fit. Subjects returned to the clinic on Day 10 (±2 days) for a follow up visit.
# The concentrations of RE104 and isoprocin in plasma were determined using a validated Liquid chromatography tandem mass spectrometry (LC-MS/MS) assay.
# [10] = in vivo; conditions: male, beagle, dog, plasma
# Description: Two consecutive doses were separated by z7 days. Plasma samples were analyzed using an LC-MS/MS method (lower limit of quantification of 1.00 ng/mL for both analytes).
# (§2) Pharmacokinetic parameters were calculated using Phoenix WinNonlin, version 6.3 or 8.2 (Certara, Princeton, NJ, USA).
# For dog PK assessments, approximately 0.5 mL of blood was collected via superficial vein before dose and at 5 (for IV and SC injections only), 15, and 30 minutes and 1, 2, 4, 8, 16, 24, 48, and 72 hours post dose into tubes containing K2EDTA with 10 mM Dichlorvos as the anticoagulant and stabilizer, respectively.
# [11] = molecular target: human recombinant 5-HT2A receptors (Homo sapiens, UniProt P28223); test: 5-HT2A agonist radioligand binding assay ([125I]DOI)
# Description: Increasing concentrations of RE104 were incubated with 0.2 nM [^125I]DOI in CHO cell cultures expressing human recombinant 5-HT2B receptors.
# Radioligand concentration was measured by scintillation counting; compound binding was calculated as percent inhibition of the binding of [^125I]DOI. In agonist activity assays, test concentrations of RE104 were incubated with HEK-293 cells expressing human recombinant 5-HT2A receptors; IP1 production was detected using homogeneous time-resolved fluorescence. Activation was calculated as a percentage of the response to the positive control (10 μM 5-HT).
# Inhibition constants were calculated by using the Cheng-Prusoff equation Ki=IC50/(1+L/KD), where L=radioligand concentration and KD=radioligand affinity for the receptor (determined with a Scatchard plot). In the functional activity assay test concentrations of RE104 were 10 nM, 30 nM, 100 nM, 300 nM, 1 μM, 3 μM, 10 μM, and 30 μM. EC50 and IC50 values were determined by nonlinear regression analysis of the concentration-response curves generated with mean replicate values using Hill equation curve fitting.
# [12] = GLP 14-day extended single SC dose toxicity study in dogs; conditions: beagle, dog, sc
# [13] = tested on: dogs; test: as above
# [14] = Rat PK after single IV or SC RE104 HCl 2 mg/kg (Example 1); conditions: plasma, sc, 2 mg/kg
# [15] = Rat plasma PK after IV, PO, SC RE104 or 4-OH-DiPT (Example 3); conditions: 2 mg/kg RE104 IV, vs AUC0-- of equimolar IV 4-OH-DiPT
# Description: The concentration of test compounds was determined in plasma by LC-MS/MS. […] Pharmacokinetic parameters for each analyte and route of administration were estimated from the plasma concentration-versus-time curves for each animal. Head-twitch response (HTR), also referred to as wet dog shakes, was assessed by observing rats for automatisms consisting of rapid and alternating head rotations (González-Maeso et al. and Halberstadt et al.); HTRs were manually counted using 10-minute intervals up to 2 hours after dosing and again at 3, 3.5, and 4 hours after dosing.
# as §2
# For rat PK assessments, approximately 0.25 mL blood was serially collected at 8 time points over 6 hours (5, 15, 30, and 45 minutes, and 1, 2, 4, and 6 hours after dosing) via a surgically placed carotid artery catheter and immediately transferred to tubes containing K2EDTA on ice. For dog PK assessments, approximately 0.5 mL of blood was collected via superficial vein before dose and at 5 (for IV and SC injections only), 15, and 30 minutes and 1, 2, 4, 8, 16, 24, 48, and 72 hours post dose into tubes containing K2EDTA with 10 mM Dichlorvos as the anticoagulant and stabilizer, respectively. […]
# human recombinant 5-HT2A receptors, sequence (P28223 whole entry): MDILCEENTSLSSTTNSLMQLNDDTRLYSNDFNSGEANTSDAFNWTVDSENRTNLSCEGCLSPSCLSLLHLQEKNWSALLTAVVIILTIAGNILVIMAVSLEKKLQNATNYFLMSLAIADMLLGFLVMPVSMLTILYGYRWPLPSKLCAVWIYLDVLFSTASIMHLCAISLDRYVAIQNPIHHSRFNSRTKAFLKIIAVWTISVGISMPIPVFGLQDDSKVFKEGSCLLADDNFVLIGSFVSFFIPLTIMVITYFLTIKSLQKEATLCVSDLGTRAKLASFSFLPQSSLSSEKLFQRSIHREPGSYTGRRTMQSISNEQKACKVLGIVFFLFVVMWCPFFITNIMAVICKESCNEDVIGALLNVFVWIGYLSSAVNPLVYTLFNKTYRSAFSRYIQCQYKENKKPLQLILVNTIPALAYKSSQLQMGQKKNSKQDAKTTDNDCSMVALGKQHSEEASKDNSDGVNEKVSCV
compound,measurement,setting,value
CC(C)N(CCc1c[nH]c2cccc(OC(=O)CCCC(=O)O)c12)C(C)C [RE104],MTD at 14 days,[1]; formulated in PBS,75 mg/kg
same,MTD at 14 days,[1]; formulated in WFI,150 mg/kg
same,in vitro intrinsic clearance (CLint),[2],6.66 mL/hr/106 cells
same,in vitro intrinsic clearance (CLint),[3],3.45 mL/hr/106 cells
same,in vitro intrinsic clearance (CLint),[4],1.14 mL/hr/106 cells
same,"substrate for cytochrome P450, FMO or MAO isoforms",[5],not a substrate
same,completeness of conversion,[6],> 95%
same,time of conversion to 4-OH-DiPT,[6],< 30 min
same,conversion in aqueous solution,[7],slow conversion
same,climbing as share of escape behaviors,"[8]; rat FST, day 28",45%
same,swimming as share of escape behaviors,"[8]; rat FST, day 28",55%
same,mean swimming time relative to vehicle,"[8]; rat FST, single 1 mg/kg dose",significantly increased
same,mean immobility time vs vehicle,"[8]; rat FST, single 1 mg/kg dose, day 7, 14, and 28",significant decrease
same,duration of distinctive serotonergic behaviors,"[8]; rat, dosing day, 1 mg/kg",approximately 3 hours
same,Cmax,[9]; RE104 dose 5.5 mg SC (n = 6),173 ng/mL
same,Tmax,[9]; RE104 dose 5.5 mg SC (n = 6),25.2 min
same,half-life,[9]; RE104 dose 5.5 mg SC (n = 6),31.8 min
same,Cmax,[9]; RE104 dose 11 mg SC (n = 6),527 ng/mL
same,Tmax,[9]; RE104 dose 11 mg SC (n = 6),19.8 min
same,half-life,[9]; RE104 dose 11 mg SC (n = 6),28.8 min
same,Cmax,[9]; RE104 dose 22 mg SC (n = 6),788 ng/mL
same,Tmax,[9]; RE104 dose 22 mg SC (n = 6),22.8 min
same,half-life,[9]; RE104 dose 22 mg SC (n = 6),30 min
same,Cmax,[9]; RE104 dose 33 mg SC (n = 9),1460 ng/mL
same,Tmax,[9]; RE104 dose 33 mg SC (n = 9),15 min
same,half-life,[9]; RE104 dose 33 mg SC (n = 9),25.8 min
same,Cmax,[9]; RE104 dose 38 mg SC (n = 6),1250 ng/mL
same,Tmax,[9]; RE104 dose 38 mg SC (n = 6),22.8 min
same,half-life,[9]; RE104 dose 38 mg SC (n = 6),38.4 min
same,Cmax,[9]; RE104 dose 44 mg SC (n = 3),1800 ng/mL
same,Tmax,[9]; RE104 dose 44 mg SC (n = 3),25.2 min
same,half-life,[9]; RE104 dose 44 mg SC (n = 3),31.2 min
same,time after administration by which not detectable in plasma,[9]; any dose,≤ 5 h
same,AUC(0-inf),"[10]; po, 5 mg/kg",21.8 ng·h/mL
same,AUC(0-t),"[10]; po, 5 mg/kg",20 ng·h/mL
same,Cmax,"[10]; po, 5 mg/kg",12.2 ng/mL
same,Tmax,"[10]; po, 5 mg/kg",30 min
same,bioavailability,"[10]; po, 5 mg/kg",0.854%
same,half-life,"[10]; po, 5 mg/kg",78 min
same,AUC(0-t),"[10]; sc, 1 mg/kg",658 ng·h/mL
same,IC50,[11],1600 nM
same,Ki,"[11]; read-out: binding Ki at the 5-HT2A receptor, radioligand inhibition binding, HEK-293 cells",4300 nM
same,AUC(0-t),"[12]; plasma, 8 mg/kg",4540 ng·h/mL
same,Cmax,"[12]; plasma, 8 mg/kg",3300 ng/mL
same,NOAEL at 14 days,"[12]; both, in vivo",8 mg/kg
same,1/10 of HED,[13]; dog,0.44 mg/kg
same,1/10 of Human BSA dose,[13]; dog,25.9 mg
same,Human BSA dose,[13]; dog,160 mg/m^2
same,safety margin relative to proposed starting dose,[13]; dog HED vs 5 mg (zwitterion),approximately 53 fold
same,safety margin relative to proposed maximum dose,[13]; dog HED vs 48 mg (zwitterion),~5 fold
same,HED,"[13]; dog NOAEL, BSA conversion factors",4.4 mg/kg
same,Human BSA dose,"[13]; dog, based on a BSA of 1.62 m^2",259 mg
same,HED of 8 mg/kg in the dog,"[13]; expressed as zwitterion, 60 kg human, BSA conversion",approximately 267 mg
same,bioavailability,[14],~100%
same,fm (fraction metabolized),[15],96.7%
